Source: patent US20050112131A1, “Methods of adjuvant photodynamic therapy to enhance radiation sensitization” (priority 2002, published 2005)

Legend:
RIF-1 cells [1] = experiment: In vitro cellular oxygen consumption rate by EPR oximetry; format: cell-based, mouse; conditions: 1 μg/ml BPD, 3-hour incubation
Procedure: (§1) RIF-1 cells were plated three days prior to treatment in black, plastic 96-well plates with a transparent bottom (Fisher Scientific, Springfield, N.J.) at a density of 5000 cells/200 μl medium/well. After 3 days of growth in 5% CO2 at 37° C. in a humidified incubator, the cells were used in photodynamic therapy. On the day of treatment, the medium was replaced with 100 μl/well of medium with 1 μg/ml BPD in the verteporfin preparation. After a 3-hour incubation, the BPD solution was removed and rinsed once with Hanks Balanced Salt Solution (HBSS), then 100 μl of fresh medium was added to the wells. Cells were irradiated in groups of four wells, with blank wells between the treated groups to ensure that each group of wells received the correct dose of light. In each 96-well plate, squares of 4 were treated with increasing light doses with 8 groups/plate, including the control, non-irradiated group. Surviving cells were assayed for viability and/or cellular oxygen consumption.
Immediately following photodynamic therapy, cells were trypsinized, suspended in fresh medium, and cell viability determined by trypan blue dye exclusion prior to use in oxygen consumption measurement. […] The rate of oxygen consumption was measured using EPR. […] A Bruker EMX EPR spectrometer measured all spectra, operating at 9 GHz. […] The slope of the obtained data was determined by linear regression. […]

RIF-1 cells [2] = experiment: Cell viability (MTS assay) after in vitro photodynamic therapy; format: cell-based, mouse; conditions: 1 μg/ml BPD, 3-hour incubation, maximal light dose, MTS 24 hours after treatment
Procedure: as §1, with “In each 96-well plate, squares of 4 were treated with increasing light doses with 8 groups/plate, including the control, non-irradiated group. Surviving cells were assayed for viability and/or cellular oxygen consumption.” left out
Surviving cells were assayed 24 hours after treatment, using the MTS assay kit (CellTiter 96®AQueous, Promega, Madison, Wis.). […] After incubation for 1 h at 37° C., the absorbance of the formazan product at […] was measured directly in an automated plate reader (ThermoMax, Molecular Devices, Menlo Park, Calif.). The quantity of formazan product as measured by the amount of 490 nm absorbance units is directly proportional to the number of living cells in culture, and absorbance values from groups of wells that received the same light dose were averaged. […]

RIF-1 tumors = experiment: Tumor pO2 by EPR oximetry during verteporfin photodynamic therapy; format: in vivo, mice
Procedure: Measurements of tumor partial pressure of oxygen (pO2) were taken in mice that harbored tumors derived from injection of transformed cells. Radiation-induced fibrosarcoma (RIF-1) cells were used for in vivo studies. RIF-1 cells were obtained from the National Cancer Institute (NCI) and originated from the laboratory of James B. Mitchell. The cells were grown in culture in RPMI 1640 cell culture medium, supplemented with 10% fetal bovine serum (FBS), L-glutamine, and appropriate antibiotics. The cells were not passaged more than four times from the original stock. Cell cultures were scaled up to large culture flasks, then removed and resuspended in medium lacking FBS and injected at 4×10^6 cells/mouse in a 50 μl volume. Intradermal injection delivered the cancer cells into the upper right leg of female C3h/HeJ mice (age 5-6 weeks) approximately 11-14 days before the anticipated treatment time.
Verteporfin was obtained from QLT Phototherapeutics Inc. (Vancouver, BC, Canada) for use as photosensitizer. The photoactive molecule is a benzoporphyrin derivative mono-acid ring ‘A’ (BPD-MA), which was suspended in a lipid preparation comprising 1.77% of BPD-MA and the remaining 98.23% composed of the lipids. Verteporfin was reconstituted in phosphate buffered saline (PBS) at a final concentration of 0.2 mg BPD-MA/ml, then injected into mice lateral tail vein to deliver a dose of 1 mg BPD-MA per kg of body weight. The drug was allowed to incubate for varying times prior to light exposure.
A diode laser system with 200 mW average power was used, at a wavelength of 690 nm (Applied Optronics, South Plainfield, Conn.). The beam was delivered to the tumor site in animals through a 140 μm fiber-optic, and was expanded onto the tumor in a circular top-hat beam, using a fiber-optic collimator (Thor Labs, North Newton, N.J.). The beam diameter for in vivo experiments was 1.1 cm, producing an irradiance of 200 mW/cm^2. Light treatment was given transcutaneously with shaven animals.
Animals were anesthetized by isoflurane at a concentration of 1.5% mixed with 26% oxygen in a continuous flow, delivered by inhalation. The animal was maintained at 37° C. on a heated water pad. Warm air was allowed to flow over the animal. In the first treatment group, tumors were exposed to light three hours after verteporfin injection. The second group received light only 15 minutes after injection. These animals were monitored for tumor pO2 before, during, and after treatment. The second experimental group is thought to be indicative of eliciting a vascular occlusion response, and contrasts effects from 3-hour photosensitizer incubation. The third group received light without prior photosensitizer injection.
Tumor pO2 was monitored with an oxygen-sensitive electron paramagnetic resonance (EPR) probe material, synthetic lithium phthalocyanine (LiPc), which was implanted into tissue and allowed for stable measurements of tissue pO2 over several weeks. […] LiPc molecules between 50 and 200 μm in diameter were implanted into the animal tumors with a 23-gauge needle at least 24 hours before photodynamic therapy, allowing for resolution of acute fluctuations in pO2 due to injection. The particles were implanted at a depth of 1-3 mm within the tumor.
The animals were placed in an L-band (1.2 GHz) EPR spectrometer with a custom-made microwave bridge for measurements of tissue pO2. The external loop resonator was positioned over the tumor to record the EPR signal of the LiPc from within the tissue. […]

Substance: benzoporphyrin derivative mono-acid ring ‘A’ (BPD-MA) [Verteporfin]
- oxygen consumption rate (RIF-1 cells [1]; highest light dose 16 J/cm^2): 0.37±0.04 mmol/min/10^6 cells
- oxygen consumption as % of control oxygen consumption rates (RIF-1 cells [1]; maximal light dose): 21±4%
- cell survival (RIF-1 cells [2]): 20±5%
- tumor pO2 at 1 h post-treatment (RIF-1 tumors; 1 mg/kg BPD-MA i.v., light 3 hours after injection): returned to within control, or pre-treatment values
- final tumor pO2 immediately after treatment (RIF-1 tumors; 1 mg/kg BPD-MA i.v., light 3 hours after injection, 690 nm, 144 J/cm^2, p=0.048 vs control): 15.2±6.9 mm Hg
- initial tumor pO2 (RIF-1 tumors; 1 mg/kg BPD-MA i.v., light 3 hours after injection, value before light): 2.8±1.0 mm Hg
- average tumor pO2 prior to light exposure (RIF-1 tumors; 1 mg/kg BPD-MA injected 15 min prior to irradiation): 6.8±1.6 mm Hg
- average tumor pO2 immediately following treatment (RIF-1 tumors; 1 mg/kg BPD-MA injected 15 min prior to irradiation (vascular targeting)): 4.1±0.3 mm Hg
